# Measurements published in patent US20130252886A1, “METHODS OF DELAYING AND TREATING DIABETES” (priority 2010, published 2013).
# “Also recorded” adds a separate entry of the source.
# Columns and labels:
# Format in all cases: in vivo
# [1] = Average body weight / lean body mass of NOD mice; conditions: 30 mg/kg GABA and/or 0.4 U insulin groups
# Excerpt: FIGS. 3 and 4 show the average weight for the NOD mice in each group during the course of the experiment. The x-axis (age of mouse in weeks) corresponds to both the delayed onset and treatment regimens, depending on when the diagnosis of diabetes was made.
# [2] = system: insulin-dependent dogs; experiment: Stimulated C-peptide in insulin-dependent dogs (radioimmunoassay); conditions: oral GABA 30, 60, 90 mg/kg, seven dogs
# Excerpt: C-peptide was monitored as a way to determine the amount of endogenous insulin synthesized and secreted in these diabetic dogs. Endogenous insulin is first biosynthesized as linked A, B and C peptides. The C-peptide is removed and circulates in the blood stream. The active insulin molecule is linked A & B peptide only. Since diabetic patients administering insulin injections receive exogenous A & B peptide, the measurement of C-peptide can determine of how much endogenous insulin is produced by the individual's pancreas.
# In this study stimulated C-peptide was measured every two months. On the day of C-peptide measurements, blood was drawn at time 0 and the dog was fed stimulating C-peptide release. No exogenous insulin was given by injection to avoid suppressing endogenous insulin secretion. Blood was drawn again at 60, 90, 120 and 240 minutes. […] C-peptide was plotted as area under the curve measurements. The values for the placebo treatment have been grouped and represent all seven dogs.
# [3] = system: insulin-dependent dogs; experiment: Clinical trial of oral GABA in naturally-occurring insulin-dependent dogs: blood glucose, fructosamine
# Description: These companion dogs were housed in homes, mimicking the lifestyle of diabetic humans. Based on published estimates, approximately 50% of these animals had insulitis, while others have had pancreatitis.
# The GABA was diluted in water and the owner administers it orally (PO QD) as a bolus just before feeding. […] Once randomized on day 120, all investigators were blinded as to treatment.
# As previously described in Example 5, supra, the 8 month clinical canine trial in collaboration with Purdue University was completed. Naturally-occurring diabetic dogs were housed in homes and were insulin dependent when they began the study. FIGS. 18 and 19 show the mean 10 hour fasting blood glucose (mg/dl) and mean C-peptide (ng/ml/kg) in these insulin-dependent dogs, respectively.
# FIG. 18 is a graph of the mean blood glucose in the seven dogs measured during a ten hour window. On a measurement day, the dogs were fed and given insulin. Blood glucose was then monitored at ˜8:00 AM and for every two hours until ˜6:00 PM. The mean of these values was taken and plotted in FIG. 18.
# On day 0, the mean 10 hr glucose was 310 mg/dl. From day 0 to day 60, the dogs were treated with insulin only. […] The mean blood glucose over the 10 hour measurement period dropped to 209 mg/dl by the last visit, a 33% overall improvement without a significant change in the average insulin dosage.
# [4] = system: female NOD mice; experiment: Diabetes prevention/delayed onset study, fasting blood glucose
# Excerpt: Normally, ninety to one hundred percent of female NOD mice, available, for example, from Jackson Laboratory, develop diabetes by 30 weeks of age. Two treatments were designed to study delaying the onset of diabetes and diabetes intervention in NOD mice. The first examined therapies in NOD mice beginning at 8 weeks of age to delay the onset of diabetes onset.
# In the diabetes prevention/delayed onset study, mice were divided into five groups. […] Group 3 received 0.4 units insulin subcutaneously just prior to consuming food.
# Female NOD mice (Jackson Laboratory) were allowed to access food ad lib overnight. A 12 hour light-dark cycle was maintained and mice were housed in accordance with the NIH Animal Care and Use guidelines. Food was removed for eight hours during the day and the fasting blood glucose was tested daily at the end of the eight hour fast.
# The control group received vegetable oil to the fur without anything else. […] The insulin only group was given 0.4 units insulin (SQ) just before feeding.
# Diabetes was defined as a fasting blood glucose ≧200 mg/dl on three consecutive days. The average of the fasting blood glucose over the three days was included in the calculation of the average for each group in the prevention data (see Table 1 and FIG. 1).
# [5] = system: Female NOD mice (NOD/ShiLtJ, Taconic); experiment: Insulin requirement and blood glucose in diabetic NOD mice, GABA vs lysine controls (Example 6)
# Description: Female NOD mice (NOD/ShiLtJ, Taconic) were housed in accordance with NIH Animal Use and Welfare guidelines with 12 hour light-dark cycle beginning at 9 weeks of age. The animals were fed a standard rodent diet ad lib. Blood glucose was measured weekly using a Freestyle glucometer, and then twice daily once it was determined they had diabetes.
# Mice were considered diabetic if a single non-fasting blood glucose measurement was […]. For about eight weeks before the mice became diabetic, their average fasting blood glucose was 102 mg/dl. Once diabetic, blood glucose levels were measured twice daily, approximately eight hours apart. All of the mice received insulin subcutaneously twice daily and the dosage was adjusted as needed. Three diabetic mice were randomly designated as controls and were given the amino acid lysine (8 mg/kg) orally (PO) twice a day before the administration of insulin.
# [6] = system: NOD mouse pancreas; experiment: Pancreas histology of NOD mice
# Description: NOD mice, as previously described in Examples 1-4, supra, were anesthetized with an intraperitoneal injection of 75 mg/kg pentobarbital (Nembutol). When mice were unresponsive to painful stimuli, the pancreas was surgically removed and placed in 10% neutral buffered formalin. Mice were then euthanized by exsanguination. The paraffin blocks of fixed pancreas were processed by automation and 5 micron sections were prepared from three levels for automated hematoxylin and eosin staining followed by aldehyde fuchsin stain for insulin. The histology slides were prepared and stained at Jackson Laboratory, Bar Harbor, Me.
# [7] = Pharmacokinetics: plasma GABA concentration in diabetic dogs (LC/MS)
# Description: Plasma GABA measurements were made by liquid chromatography/mass spectroscopy. Blood was drawn at 0, 60, 90, 120 and 240 minutes and plotted as area under the curve. These samples were drawn after a meal but in the absence of exogenous insulin administration, as previously described for C-peptide measurements. Blood samples were drawn and divided into serum separation or plasma separation tubes for C-peptide and pharmacokinetics studies respectively.
# This bell shaped response mimics what is seen in dose-response curves with GABA in vitro.
# [8] = system: diabetic female NOD mice; experiment: Diabetes treatment protocol in diabetic NOD mice (GABA before insulin, BID)
# Excerpt: Once the NOD mice became diabetic, they were shifted from the prevention/delayed onset regimen into the treatment protocol. […] The first dose of GABA was given just after removing the food from the cage and a second dose was given approximately eight hours later, just before feeding. […] Two NOD mice were maintained on insulin when they became diabetic, to serve as controls.
# The first dose of GABA was given just after removing the food from the cage and a second dose was given approximately eight hours later, just before feeding. The insulin dose administered was based on each mouse's blood glucose level.
# Female non-obese diabetic (NOD) mice (Jackson Laboratory) were used to study GABA treatment efficacy. Diabetes normally occurs in 90-100% of these mice by 30 weeks and they develop the insulitis and hypoinsulinemia that characterizes Type 1 diabetes in humans. Mice were housed in accordance with NIH Animal Use and Welfare guidelines with 12 hour light-dark cycle beginning at 8 weeks of age. Animals were fed a standard rodent diet ad lib overnight followed by removal of food from the cage for an 8 hour fast. Before and after the eight hour fast, blood glucose was measured weekly using a Freestyle Glucometer and then daily once mice were determined to be diabetic. Mice were considered diabetic if at the end of the 8 hours fast, on three consecutive days, glucose measurements were ≧200 mg/dl. Onset of diabetes usually began to occur when the mice were 12 weeks of age.
# [9] = 13 weeks of age, treatment just before feeding (30 mg/kg GABA PO and/or 0.4 U insulin SQ)
# [10] = 19 weeks of age, treatment just before feeding
# [11] = 21 weeks of age, treatment just before feeding
# [12] = 22 weeks of age, treatment just before feeding
# [13] = 24 weeks of age, treatment just before feeding
# [14] = 26 weeks of age, treatment just before feeding
compound,measurement,setting,value
"NCCCC(=O)O [GABA, γ-aminobutyric acid]",average weight / lean body mass,"[1]; FIGS. 3 and 4, 30 mg/kg",maintained the lowest weights; also recorded: maintains lean body mass
same,C-peptide (area under the curve),[2],dose dependent increase
same,average reduction in blood glucose levels from day 60 to day 120,[3]; 30 mg/kg GABA PO QD,32%
same,reduction in average blood glucose levels at day 120 compared to the pre-treatment average (day −10 through day 60),[3]; 30 mg/kg GABA PO QD,40%
same,overall improvement of mean 10 hour blood glucose,"[3]; day 0 to last visit, without significant change in average insulin dosage",33%
same,mean blood glucose over the 10 hour measurement period,"[3]; seven dogs, last visit, GABA escalated 30, 60, 90 mg/kg, day 0 value 310 mg/dl",209 mg/dL
same,fasting blood glucose control,"[3]; six dogs, 30 mg/kg GABA PO QD from day 60, with insulin, 30 mg/kg",downward decrease in fasting blood glucose; also recorded: substantially improved
same,mean fructosamine level,"[3]; six dogs, treatment days 60-120 with 30 mg/kg GABA vs pretreatment days 0-59 (p=0.007)",decline of the mean fructosamine level
same,Average Fasting Blood Glucose,"[4]; 13 weeks of age, Group 5 fasting GABA, 30 mg/kg 2 hours before feeding",86 mg/dL
same,Average Fasting Blood Glucose,[4]; [9],80 mg/dL
same,Average Fasting Blood Glucose,"[4]; 15 weeks of age, Group 5 fasting GABA, 30 mg/kg 2 hours before feeding",97 mg/dL
same,Average Fasting Blood Glucose,"[4]; 17 weeks of age, Group 5 fasting GABA, 30 mg/kg 2 hours before feeding",100 mg/dL
same,Average Fasting Blood Glucose,"[4]; 19 weeks of age, Group 5 fasting GABA, 30 mg/kg 2 hours before feeding",172 mg/dL
same,Average Fasting Blood Glucose,[4]; [10],127 mg/dL
same,Average Fasting Blood Glucose,"[4]; 21 weeks of age, Group 5 fasting GABA, 30 mg/kg 2 hours before feeding",239 mg/dL
same,Average Fasting Blood Glucose,[4]; [11],138 mg/dL
same,mice alive and diabetes free,"[4]; 22 weeks of age, Group 2, 30 mg/kg GABA PO just before feeding (4/4 mice)",100%
same,mice that became diabetic,"[4]; 22 weeks of age, Group 5, 30 mg/kg GABA under fasting conditions",50%
same,Average Fasting Blood Glucose,"[4]; 22 weeks of age, Group 5 fasting GABA, 30 mg/kg 2 hours before feeding",266 mg/dL
same,Average Fasting Blood Glucose,[4]; [12],173 mg/dL
same,Average Fasting Blood Glucose,"[4]; 24 weeks of age, Group 5 fasting GABA, 30 mg/kg 2 hours before feeding",265 mg/dL
same,Average Fasting Blood Glucose,[4]; [13],152 mg/dL
same,average fasting blood glucose compared with other treatment groups,[4]; [13],significantly lower
same,average fasting blood glucose compared with other groups,"[4]; 24 weeks, Group 5, 30 mg/kg GABA under fasting conditions",significantly higher
same,Average Fasting Blood Glucose,"[4]; 26 weeks of age, Group 5 fasting GABA, 30 mg/kg 2 hours before feeding",226 mg/dL
same,Average Fasting Blood Glucose,[4]; [14],253 mg/dL
same,prevention / delay of diabetes onset,"[4]; Group 2, 30 mg/kg GABA just before feeding",delayed the longest; also recorded: most successful prevention treatment
same,effectiveness of prevention treatment,"[4]; Group 5, 30 mg/kg GABA under fasting conditions, vs GABA just before feeding",less effective
same,decrease in insulin compared to control mice,"[5]; 60 or 90 mg/kg GABA, over 9 weeks",4 fold
same,mice that became insulin independent,[5]; GABA treated group (4 out of 8),50%
same,blood glucose average in mice not requiring insulin,[5]; on oral GABA alone,below 150 mg/dl
same,mean blood glucose,"[5]; over 9 weeks, 60 or 90 mg/kg GABA with insulin",310 mg/dL
same,"pancreatic histology, islets and inflammation","[6]; mouse that remained on GABA (and insulin) until sacrifice, FIG. 15",regenerated islets and little to no inflammation
same,pancreatic histology after stopping GABA treatment,"[6]; mouse weaned off insulin, sacrificed at 64 weeks, FIG. 14",causes the inflammation to return to the pancreas
same,change of plasma GABA levels at visit 14,[7]; dose raised to 90 mg/kg,decreases two fold
same,increase of plasma GABA levels between visit 8 and visit 12,[7]; oral GABA dose doubled (30 to 60 mg/kg),~80 fold
same,insulin dose required over the course of treatment,"[8]; 60 mg/kg GABA BID, insulin dosed to keep fasting blood glucose ≦200 (Ex. 2) or ≦150 mg/dl (Ex. 4)",declined markedly; also recorded: rapidly required less insulin; also recorded: significantly less insulin over time
same,lowering blood glucose levels and insulin requirements after onset of diabetes,[8]; 60 mg/kg GABA PO BID,effective treatment
same,fasting and fed blood glucose in mice that became insulin independent,[8]; 60 mg/kg GABA orally over approximately 11 weeks,completely restored to normal
same,number of insulin dependent diabetic mice that became insulin independent,[8]; 60 mg/kg GABA treatment,four
same,reduction in insulin dose to keep fasting blood glucose ≦150 mg/dl,[8]; all diabetic mice treated with 60 mg/kg GABA,≥ 85%
same,"decrease in average insulin requirement, of the maximum dose","[8]; eight diabetic mice, 60 mg/kg GABA BID",85%
same,insulin required to maintain an average weekly blood glucose of 200 mg/dl,"[8]; single mouse of FIG. 15, at sacrifice",0.0025 units
same,"insulin dose at sacrifice, of the original dose","[8]; single mouse of FIG. 15, diabetic 34 weeks, on insulin and GABA throughout",less than 1%
same,insulin requirement to maintain fasting blood glucose ≦150 mg/dl,[8]; three of the eight mice treated with GABA (FIG. 6),eventually came to zero
"NCCCC[C@H](N)C(=O)O [lysine, reference compound]",insulin requirements,"[5]; range over the 9 week study period, GABA 60 or 90 mg/kg or lysine 8 mg/kg PO BID before insulin",0.030-0.047 units/day
"Insulin: exogenous insulin given subcutaneously, 0.4 units just prior to consuming food [reference compound]",average weight / lean body mass,[1]; FIGS. 3 and 4,increased body mass throughout the study
same,Average Fasting Blood Glucose,[4]; [9],82 mg/dL
same,Average Fasting Blood Glucose,"[4]; 15 weeks of age, treatment just before feeding",114 mg/dL
same,Average Fasting Blood Glucose,"[4]; 17 weeks of age, treatment just before feeding",162 mg/dL
same,Average Fasting Blood Glucose,[4]; [10],134 mg/dL
same,Average Fasting Blood Glucose,[4]; [11],150 mg/dL
same,Average Fasting Blood Glucose,[4]; [12],188 mg/dL
same,Average Fasting Blood Glucose,[4]; [13],195 mg/dL
same,Average Fasting Blood Glucose,[4]; [14],260 mg/dL
